In the supplement of paper PMC11451515:

Assays:
Conditions in all cases: 48 h
NOMO1 [1] = assay: cell viability relative to DMSO control; higher = less cytotoxic
Outline: (§1)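 Three leukemia lines were tested: NOMO1 and SEM at 500 cells/well and P12-Ichikawa at 1000 cells/well. Each was adapted for at least four passages in each medium and seeded in 5 μl in 1536-well plates, and library compounds in DMSO were pin-dosed from 47 μM to 0.79 nM in 11 threefold steps. After 48 h at 37°C, CellTiter-Glo One luminescence was read. Viability is a percentage relative to DMSO wells on each plate, with cell-free wells as background.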

P12-Ichikawa [2] = assay: as above
Outline: as §1

SEM cells [3] = assay: as above
Outline: as §1

NOMO1 [4] = assay: AUC of viability dose-response curve (% viability x log10 dose units); higher = less sensitive
Outline: (§2)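 Leukemia cells adapted to each medium were seeded at 500 or 1000 cells/well in 1536-well plates and dosed with library compounds in DMSO at 11 threefold doses from 47 μM to 0.79 nM for 48 h at 37°C. CellTiter-Glo One luminescence was normalised per plate to DMSO and cell-free wells, then fitted with a four-parameter log-logistic model over log10 doses. Area under the curve was taken from this fit by the trapezoidal rule, with curves above full viability scaled and curves failing quality control removed.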

P12-Ichikawa [5] = assay: as above
Outline: as §2

SEM cells [6] = assay: as above
Outline: as §2

CC(C)(C)c1[nH]cnc1/C=c1\[nH]c(=O)/c(=C/c2ccccc2)[nH]c1=O
cell viability [%]
Conditions	NOMO1 [1]	P12-Ichikawa [2]	SEM cells [3]
HPLM + 10% dialyzed FBS, 0.000781 µM	101	115	102
HPLM + 10% dialyzed FBS, 0.00234 µM	76.7	80	69
HPLM + 10% dialyzed FBS, 0.00702 µM	31	22.5	20
HPLM + 10% dialyzed FBS, 0.0211 µM	46	18.4	23.9
HPLM + 10% dialyzed FBS, 0.0632 µM	52.7	12	24.3
HPLM + 10% dialyzed FBS, 0.19 µM	37.5	9.79	25.5
HPLM + 10% dialyzed FBS, 0.569 µM	42.1	7.81	24.3
HPLM + 10% dialyzed FBS, 1.71 µM	32.5	3.5	7.62
HPLM + 10% dialyzed FBS, 5.12 µM	20.3	2.31	4.47
HPLM + 10% dialyzed FBS, 15.4 µM	22.1	2.32	4.16
HPLM + 10% dialyzed FBS, 46.1 µM	5.6	2.23	3.59
RPMI 5 mM glucose + 10% FBS, 0.000781 µM	128	100	117
RPMI 5 mM glucose + 10% FBS, 0.00234 µM	109	97	85.4
RPMI 5 mM glucose + 10% FBS, 0.00702 µM	24.3	16.3	16.6
RPMI 5 mM glucose + 10% FBS, 0.0211 µM	24.5	26.5	14
RPMI 5 mM glucose + 10% FBS, 0.0632 µM	28.9	17.8	16.1
RPMI 5 mM glucose + 10% FBS, 0.19 µM	23.9	8.22	17.9
RPMI 5 mM glucose + 10% FBS, 0.569 µM	24.9	5.98	12.1
RPMI 5 mM glucose + 10% FBS, 1.71 µM	17.4	3.28	4.12
RPMI 5 mM glucose + 10% FBS, 5.12 µM	18.4	2.14	3.51
RPMI 5 mM glucose + 10% FBS, 15.4 µM	14.6	1.52	2.93
RPMI 5 mM glucose + 10% FBS, 46.1 µM	6.53	1.95	2.89
RPMI 5 mM glucose + 10% dialyzed FBS, 0.000781 µM	103	103	106
RPMI 5 mM glucose + 10% dialyzed FBS, 0.00234 µM	105	110	80
RPMI 5 mM glucose + 10% dialyzed FBS, 0.00702 µM	24.9	32.7	17.5
RPMI 5 mM glucose + 10% dialyzed FBS, 0.0211 µM	26.2	36.8	21.2
RPMI 5 mM glucose + 10% dialyzed FBS, 0.0632 µM	29.5	25	23.4
RPMI 5 mM glucose + 10% dialyzed FBS, 0.19 µM	27.8	15.7	21.4
RPMI 5 mM glucose + 10% dialyzed FBS, 0.569 µM	30.6	14.2	19.5
RPMI 5 mM glucose + 10% dialyzed FBS, 1.71 µM	20.8	4.42	4.68
RPMI 5 mM glucose + 10% dialyzed FBS, 5.12 µM	23.2	4.87	3.49
RPMI 5 mM glucose + 10% dialyzed FBS, 15.4 µM	16.5	2.24	3.56
RPMI 5 mM glucose + 10% dialyzed FBS, 46.1 µM	3.92	2.04	3.02

NOMO1 [4]
Conditions	AUC of viability dose-response curve
HPLM + 10% dialyzed FBS	200
RPMI 5 mM glucose + 10% FBS	129
RPMI 5 mM glucose + 10% dialyzed FBS	160

COc1cc(F)c(C(C)C)cc1-c1ccc(C(F)(F)F)cc1CN1C(=O)O[C@H](c2cc(C(F)(F)F)cc(C(F)(F)F)c2)[C@@H]1C
AUC of viability dose-response curve
Conditions	NOMO1 [4]	P12-Ichikawa [5]	SEM cells [6]
HPLM + 10% dialyzed FBS	375	438	457
RPMI 5 mM glucose + 10% FBS	438	451	445
RPMI 5 mM glucose + 10% dialyzed FBS	444	459	441

N/C1=N/C(=O)C/2=C(NC[C@@H](CNC3=CC=C(C=C3)C(=O)N[C@@H](CCC([O-])=O)C([O-])=O)N2C=O)\N1
SEM cells [3], HPLM + 10% dialyzed FBS
Conditions	cell viability [%]
0.000781 µM	103
0.00234 µM	114
0.00702 µM	120
0.0211 µM	115
0.0632 µM	131
0.19 µM	114
0.569 µM	117
1.71 µM	116
5.12 µM	119
15.4 µM	123
46.1 µM	136

AUC of viability dose-response curve
Conditions	HPLM + 10% dialyzed FBS	RPMI 5 mM glucose + 10% FBS	RPMI 5 mM glucose + 10% dialyzed FBS
NOMO1 [4]	319	307	321
SEM cells [6]	446	465	437

CN(C)CCc1ccc(O)cc1
SEM cells [3], HPLM + 10% dialyzed FBS
Conditions	cell viability [%]
0.000781 µM	114
0.00234 µM	120
0.00702 µM	134
0.0211 µM	130
0.0632 µM	137
0.19 µM	135
0.569 µM	116
1.71 µM	140
5.12 µM	113
15.4 µM	135
46.1 µM	110

AUC of viability dose-response curve
Conditions	NOMO1 [4]	P12-Ichikawa [5]	SEM cells [6]
HPLM + 10% dialyzed FBS	454	448	471
RPMI 5 mM glucose + 10% FBS	460	446	455
RPMI 5 mM glucose + 10% dialyzed FBS	461	450	471

CC(C)(C(=O)NCC(F)(F)C(F)(F)F)C(=O)N[C@@H]1C(=O)Nc2ccccc2-c2ccccc21
cell viability [%], SEM cells [3]
Conditions	HPLM + 10% dialyzed FBS	RPMI 5 mM glucose + 10% FBS
0.000781 µM	99.6	96.8
0.00234 µM	113	127
0.00702 µM	120	120
0.0211 µM	128	133
0.0632 µM	127	122
0.19 µM	119	128
0.569 µM	119	130
1.71 µM	123	108
5.12 µM	126	124
15.4 µM	129	72.7
46.1 µM	3.02	3.52

AUC of viability dose-response curve
Conditions	HPLM + 10% dialyzed FBS	RPMI 5 mM glucose + 10% FBS	RPMI 5 mM glucose + 10% dialyzed FBS
NOMO1 [4]	366	337	363
SEM cells [6]	452	435	452

O=[S+]([O-])(CC1CS1)c1ccc(Oc2ccccc2)cc1 (stereo not given)
AUC of viability dose-response curve
Conditions	NOMO1 [4]	P12-Ichikawa [5]	SEM cells [6]
HPLM + 10% dialyzed FBS	448	462	451
RPMI 5 mM glucose + 10% FBS	461	445	437
RPMI 5 mM glucose + 10% dialyzed FBS	435	447	450

CC[C@@]1(O)C(=O)OC\C2=C1\C=C3/N(CC4=CC5=C(C=CC(=C5CN(C)C)O)N=C34)C2=O
SEM cells [3], RPMI 5 mM glucose + 10% FBS
Conditions	cell viability [%]
0.000781 µM	101
0.00234 µM	107
0.00702 µM	87.2
0.0211 µM	107
0.0632 µM	68.6
0.19 µM	22.4
0.569 µM	11.5
1.71 µM	12.2
5.12 µM	6.44
15.4 µM	4.3
46.1 µM	4.41

AUC of viability dose-response curve
Conditions	NOMO1 [4]	P12-Ichikawa [5]	SEM cells [6]
HPLM + 10% dialyzed FBS	306	225	245
RPMI 5 mM glucose + 10% FBS	312	217	226
RPMI 5 mM glucose + 10% dialyzed FBS	324	215	230

CC(=O)O[C@H]1C[C@@H]2CC[C@@H]3[C@H](CC[C@@]4(C)[C@H]3C[C@H]([N+]3(C)CCCCC3)[C@@H]4OC(C)=O)[C@@]2(C)C[C@@H]1N1CCCCC1
SEM cells [3], HPLM + 10% dialyzed FBS
Conditions	cell viability [%]
0.000781 µM	124
0.00234 µM	124
0.00702 µM	138
0.0211 µM	123
0.0632 µM	146
0.19 µM	144
0.569 µM	120
1.71 µM	137
5.12 µM	132
15.4 µM	125
46.1 µM	110

AUC of viability dose-response curve
Conditions	NOMO1 [4]	P12-Ichikawa [5]	SEM cells [6]
HPLM + 10% dialyzed FBS	454	464	470
RPMI 5 mM glucose + 10% FBS	438	466	465
RPMI 5 mM glucose + 10% dialyzed FBS	467	469	466
